Data from patent US20220040129A1, “TREATMENT OF HYPERAMMONEMIA IN PATIENTS WITH RENAL INSUFFICIENCY” (RECORDATI S.p.A., priority 2019, published 2022).

Tests used:
Assay in all cases: In vitro transporter inhibition
Assay type in all cases: in vitro ADME
[1] = molecular target: human BSEP (Homo sapiens, UniProt O95342)
Protocol: (§1) In vitro drug interaction studies were performed with human transporters. […] Potential interactions with inhibitors of the OAT1 transporter were considered clinically irrelevant.

[2] = molecular target: human MATE2-K (Homo sapiens, UniProt Q86VL8)
human MATE2-K, sequence (Q86VL8 1-566 isoform Q86VL8-3): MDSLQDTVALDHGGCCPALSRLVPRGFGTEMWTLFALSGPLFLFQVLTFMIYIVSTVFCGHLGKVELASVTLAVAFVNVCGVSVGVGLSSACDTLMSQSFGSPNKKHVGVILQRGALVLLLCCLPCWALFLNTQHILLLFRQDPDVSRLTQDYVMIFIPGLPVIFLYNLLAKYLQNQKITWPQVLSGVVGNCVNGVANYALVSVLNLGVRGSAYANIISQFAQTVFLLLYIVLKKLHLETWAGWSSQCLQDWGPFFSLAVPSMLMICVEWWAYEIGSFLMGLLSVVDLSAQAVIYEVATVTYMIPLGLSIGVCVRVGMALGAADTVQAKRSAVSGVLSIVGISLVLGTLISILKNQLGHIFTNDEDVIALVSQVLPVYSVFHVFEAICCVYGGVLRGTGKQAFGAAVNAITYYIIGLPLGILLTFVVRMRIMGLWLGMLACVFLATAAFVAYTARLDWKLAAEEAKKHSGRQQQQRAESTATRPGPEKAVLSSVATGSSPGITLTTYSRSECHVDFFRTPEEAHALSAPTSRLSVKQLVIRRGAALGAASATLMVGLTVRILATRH
Protocol: as §1

[3] = molecular target: human MDR1 (Homo sapiens, UniProt P08183)
human MDR1, sequence (P08183 whole entry): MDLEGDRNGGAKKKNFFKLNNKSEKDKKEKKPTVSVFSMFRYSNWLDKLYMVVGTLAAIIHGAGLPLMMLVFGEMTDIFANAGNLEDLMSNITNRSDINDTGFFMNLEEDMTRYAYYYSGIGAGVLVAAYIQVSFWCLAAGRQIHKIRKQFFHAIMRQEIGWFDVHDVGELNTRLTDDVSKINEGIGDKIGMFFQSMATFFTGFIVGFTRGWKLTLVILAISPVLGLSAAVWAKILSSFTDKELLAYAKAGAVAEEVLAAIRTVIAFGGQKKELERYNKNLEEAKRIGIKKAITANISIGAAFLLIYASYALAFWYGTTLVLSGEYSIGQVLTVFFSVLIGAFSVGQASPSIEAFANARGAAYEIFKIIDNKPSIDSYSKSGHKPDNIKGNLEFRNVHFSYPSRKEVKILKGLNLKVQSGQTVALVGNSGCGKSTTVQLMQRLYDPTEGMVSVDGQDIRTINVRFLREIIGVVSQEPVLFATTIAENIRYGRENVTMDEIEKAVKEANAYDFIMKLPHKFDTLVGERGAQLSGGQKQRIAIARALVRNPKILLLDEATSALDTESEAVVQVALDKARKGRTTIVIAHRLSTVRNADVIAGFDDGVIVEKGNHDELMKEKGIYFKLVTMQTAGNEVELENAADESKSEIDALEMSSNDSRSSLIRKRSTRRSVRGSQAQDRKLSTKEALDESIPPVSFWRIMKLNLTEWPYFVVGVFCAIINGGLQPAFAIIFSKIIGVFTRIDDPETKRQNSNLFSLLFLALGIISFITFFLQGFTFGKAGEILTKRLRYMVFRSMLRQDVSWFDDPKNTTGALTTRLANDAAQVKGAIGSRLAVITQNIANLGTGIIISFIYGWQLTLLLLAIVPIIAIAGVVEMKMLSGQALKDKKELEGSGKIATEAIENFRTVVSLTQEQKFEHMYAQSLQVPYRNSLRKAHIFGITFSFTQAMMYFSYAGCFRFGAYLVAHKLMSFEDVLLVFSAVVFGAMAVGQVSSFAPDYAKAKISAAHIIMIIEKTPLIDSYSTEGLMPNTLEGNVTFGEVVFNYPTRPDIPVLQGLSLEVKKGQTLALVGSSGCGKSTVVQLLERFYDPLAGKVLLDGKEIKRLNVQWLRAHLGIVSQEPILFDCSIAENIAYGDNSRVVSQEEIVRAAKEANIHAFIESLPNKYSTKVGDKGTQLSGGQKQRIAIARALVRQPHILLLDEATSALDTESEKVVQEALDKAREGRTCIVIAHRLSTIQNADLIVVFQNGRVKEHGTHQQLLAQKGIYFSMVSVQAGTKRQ
Protocol: as §1

[4] = molecular target: T1, human OAT1 (Homo sapiens, UniProt Q4U2R8)
T1 sequence (Q4U2R8 1-563): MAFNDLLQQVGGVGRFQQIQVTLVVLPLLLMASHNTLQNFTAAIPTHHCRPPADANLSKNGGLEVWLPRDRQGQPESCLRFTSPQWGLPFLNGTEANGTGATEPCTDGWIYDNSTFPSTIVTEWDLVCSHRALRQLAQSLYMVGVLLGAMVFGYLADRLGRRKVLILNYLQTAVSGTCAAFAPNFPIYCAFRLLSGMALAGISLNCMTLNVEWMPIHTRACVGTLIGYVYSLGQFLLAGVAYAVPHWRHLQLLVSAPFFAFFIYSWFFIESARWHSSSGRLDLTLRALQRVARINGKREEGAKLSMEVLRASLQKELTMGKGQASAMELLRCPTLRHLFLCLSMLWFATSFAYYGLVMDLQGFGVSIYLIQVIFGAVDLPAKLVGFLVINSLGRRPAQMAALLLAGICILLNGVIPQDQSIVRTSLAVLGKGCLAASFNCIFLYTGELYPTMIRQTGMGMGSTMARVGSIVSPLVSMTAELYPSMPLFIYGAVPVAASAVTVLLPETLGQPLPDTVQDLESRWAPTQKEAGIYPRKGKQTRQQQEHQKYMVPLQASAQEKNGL
Protocol: as §1

[5] = molecular target: T2, human OATP1B1 (Homo sapiens, UniProt Q9Y6L6)
T2 sequence (Q9Y6L6 1-691): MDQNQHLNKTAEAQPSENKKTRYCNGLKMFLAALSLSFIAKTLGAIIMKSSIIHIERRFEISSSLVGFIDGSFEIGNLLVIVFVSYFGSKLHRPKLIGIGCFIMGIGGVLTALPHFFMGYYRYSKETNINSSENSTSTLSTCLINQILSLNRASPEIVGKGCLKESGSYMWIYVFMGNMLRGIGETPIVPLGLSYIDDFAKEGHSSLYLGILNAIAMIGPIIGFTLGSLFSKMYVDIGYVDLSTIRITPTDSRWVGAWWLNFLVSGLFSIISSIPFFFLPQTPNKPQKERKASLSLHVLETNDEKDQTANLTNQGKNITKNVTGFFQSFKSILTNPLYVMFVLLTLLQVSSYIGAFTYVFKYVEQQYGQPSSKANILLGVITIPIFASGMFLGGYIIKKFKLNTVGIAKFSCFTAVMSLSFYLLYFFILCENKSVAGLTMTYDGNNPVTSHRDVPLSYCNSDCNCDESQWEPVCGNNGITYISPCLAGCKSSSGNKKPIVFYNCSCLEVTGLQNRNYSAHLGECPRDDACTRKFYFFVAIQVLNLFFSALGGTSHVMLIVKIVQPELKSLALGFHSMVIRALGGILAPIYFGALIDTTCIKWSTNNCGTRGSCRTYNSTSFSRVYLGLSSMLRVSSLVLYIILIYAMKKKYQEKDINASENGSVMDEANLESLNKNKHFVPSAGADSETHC
Protocol: as §1

[6] = molecular target: T3, human OCT1 (Homo sapiens, UniProt O15245)
T3 sequence (O15245 1-554): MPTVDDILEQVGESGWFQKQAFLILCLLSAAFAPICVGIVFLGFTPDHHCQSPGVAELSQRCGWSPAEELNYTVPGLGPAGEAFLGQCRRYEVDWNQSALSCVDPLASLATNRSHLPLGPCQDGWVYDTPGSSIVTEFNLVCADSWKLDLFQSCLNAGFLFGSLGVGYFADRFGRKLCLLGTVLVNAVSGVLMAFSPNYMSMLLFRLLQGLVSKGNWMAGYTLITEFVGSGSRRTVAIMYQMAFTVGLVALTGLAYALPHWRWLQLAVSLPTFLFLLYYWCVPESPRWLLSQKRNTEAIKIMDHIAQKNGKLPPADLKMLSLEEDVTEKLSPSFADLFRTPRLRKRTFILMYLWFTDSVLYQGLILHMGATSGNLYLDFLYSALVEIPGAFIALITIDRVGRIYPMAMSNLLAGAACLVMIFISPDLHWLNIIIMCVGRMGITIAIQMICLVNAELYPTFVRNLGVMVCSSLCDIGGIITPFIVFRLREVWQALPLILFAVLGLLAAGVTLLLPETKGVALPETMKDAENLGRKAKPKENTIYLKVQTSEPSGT
Protocol: as §1

[7] = molecular target: T4, human OCT2 (Homo sapiens, UniProt O15244)
T4 sequence (O15244 1-555): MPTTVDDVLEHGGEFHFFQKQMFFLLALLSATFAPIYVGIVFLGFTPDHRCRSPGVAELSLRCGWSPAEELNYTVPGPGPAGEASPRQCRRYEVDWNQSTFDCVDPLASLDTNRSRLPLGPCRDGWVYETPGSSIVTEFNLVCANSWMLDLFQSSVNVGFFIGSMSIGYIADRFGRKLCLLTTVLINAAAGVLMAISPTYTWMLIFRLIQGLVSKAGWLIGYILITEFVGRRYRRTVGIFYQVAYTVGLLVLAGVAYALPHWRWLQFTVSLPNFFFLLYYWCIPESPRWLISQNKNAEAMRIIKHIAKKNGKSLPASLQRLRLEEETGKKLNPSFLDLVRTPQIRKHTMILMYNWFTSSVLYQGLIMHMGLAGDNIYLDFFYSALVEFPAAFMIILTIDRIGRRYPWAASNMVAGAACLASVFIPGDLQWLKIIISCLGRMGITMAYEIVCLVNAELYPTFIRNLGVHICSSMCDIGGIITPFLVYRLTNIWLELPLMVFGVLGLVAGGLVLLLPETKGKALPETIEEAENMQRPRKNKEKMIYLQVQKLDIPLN
Protocol: as §1

human BSEP, sequence (O95342 whole entry): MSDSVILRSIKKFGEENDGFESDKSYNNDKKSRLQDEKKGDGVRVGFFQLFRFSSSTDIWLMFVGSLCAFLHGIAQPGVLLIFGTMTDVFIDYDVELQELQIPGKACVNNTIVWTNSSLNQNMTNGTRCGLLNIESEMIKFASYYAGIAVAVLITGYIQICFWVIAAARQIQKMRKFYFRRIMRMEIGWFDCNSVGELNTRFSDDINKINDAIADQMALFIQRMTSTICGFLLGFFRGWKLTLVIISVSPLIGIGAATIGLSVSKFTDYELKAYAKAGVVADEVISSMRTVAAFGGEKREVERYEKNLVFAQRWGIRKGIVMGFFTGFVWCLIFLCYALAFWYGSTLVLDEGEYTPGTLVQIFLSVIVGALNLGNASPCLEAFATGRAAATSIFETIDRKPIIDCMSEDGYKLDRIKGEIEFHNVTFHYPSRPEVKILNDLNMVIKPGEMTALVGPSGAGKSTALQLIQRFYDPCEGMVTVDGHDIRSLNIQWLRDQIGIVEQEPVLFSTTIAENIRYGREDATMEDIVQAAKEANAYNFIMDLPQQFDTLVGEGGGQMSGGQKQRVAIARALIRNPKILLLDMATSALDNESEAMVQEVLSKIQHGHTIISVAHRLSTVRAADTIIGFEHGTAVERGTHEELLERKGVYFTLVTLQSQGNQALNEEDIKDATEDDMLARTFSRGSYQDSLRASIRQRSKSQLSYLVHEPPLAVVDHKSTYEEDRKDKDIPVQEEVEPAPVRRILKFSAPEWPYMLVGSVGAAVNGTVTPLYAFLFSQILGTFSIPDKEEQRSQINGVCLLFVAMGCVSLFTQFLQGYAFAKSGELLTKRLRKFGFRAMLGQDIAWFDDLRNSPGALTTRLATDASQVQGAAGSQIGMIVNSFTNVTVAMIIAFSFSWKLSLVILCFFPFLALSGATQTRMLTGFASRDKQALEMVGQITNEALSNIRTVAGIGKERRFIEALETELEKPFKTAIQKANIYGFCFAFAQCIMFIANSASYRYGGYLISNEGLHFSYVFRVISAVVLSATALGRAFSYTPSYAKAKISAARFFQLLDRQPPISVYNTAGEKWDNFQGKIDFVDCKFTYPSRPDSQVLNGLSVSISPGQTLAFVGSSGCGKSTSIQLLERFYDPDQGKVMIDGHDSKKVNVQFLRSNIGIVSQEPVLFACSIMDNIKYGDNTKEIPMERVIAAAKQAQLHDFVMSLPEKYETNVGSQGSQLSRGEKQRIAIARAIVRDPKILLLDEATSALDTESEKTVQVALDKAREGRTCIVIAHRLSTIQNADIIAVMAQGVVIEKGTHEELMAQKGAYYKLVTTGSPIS

NC(=O)N[C@@H](CCC(=O)O)C(=O)O [carglumic acid, N-carbamoyl-L-glutamic acid]
not an inhibitor: Inhibition of human BSEP efflux transporter [1] | Inhibition of human MATE2-K uptake transporter [2] | Inhibition of human MDR1 efflux transporter [3] | Inhibition of human OAT1 uptake transporter [4] | Inhibition of human OATP1B1 uptake transporter [5] | Inhibition of human OCT1 uptake transporter [6] | Inhibition of human OCT2 uptake transporter [7]
